Laboratory results as given in patent publication US7659267B2, “1,3-Benzothiazinone derivatives, process for producing the same use thereof” (Takeda Pharmaceutical Company Limited, priority 2002, dated 2010).

Legend:
[1] = test system: primary cardiomyocytes from newborn rats; experiment: Cardiomyocyte apoptosis inhibitory activity (serum-free culture, viable cell number by WST-8); type: cell-based; conditions: Rattus norvegicus, 96 h, mean of three independent experiments, concentration required to increase the mean viable cell number by 50% vs. no test compound, serum-free Medium 199, 4 days, read-out: Minimum Effective Concentration
From the text: Cardiomyocyte Apoptosis Inhibitory Activity
Newborn rats (within 1 day after birth) were obtained from pregnant Wistar rats purchased from Charles River Japan, Inc., anesthetized under ether, and sterilized with 70% ethanol. Then the heart was excised with tweezers. The excised heart was washed with a phosphate buffered saline (T900; manufactured by Takara) and cut into pieces with surgical scissors. The tissue pieces were washed 4 to 5 times with a phosphate buffered saline to remove a majority of blood-derived non-myocardial cells. To the tissue pieces derived from 10 newborns, 5 ml of enzyme solution [solution prepared by dissolving trypsin (1.25 mg)(manufactured by Difco) and collagenase (0.25 mg)(manufactured by Sigma) in phosphate buffered saline (PBS)(1 ml)] was added and the mixture was stirred with a stirrer for 15 minutes while maintaining at 37° C. After 2.5 ml of the enzyme solution was added thereto, the mixture was stirred for further 15 minutes. This procedure was repeated twice. Subsequently, Medium 199 (manufactured by Gibson) containing 10% fetal calf serum (manufactured by Biowiker) was added in a half volume of the enzyme solution to terminate the enzyme reaction. The cells were filtered through a cell strainer (manufactured by Falcon) and then centrifuged at 400×g for 5 minutes to collect the cells.
The cells thus collected from the 10 newborns were suspended in 50 ml of Medium 199 containing 10% fetal calf serum. The suspension was plated onto 100 mm Petri dishes (manufactured by Iwaki) in a volume of 10 ml each/dish and cultured for 1 hour in a CO2 incubator set at 5% CO2 and 37° C. The cells were then recovered, filtered through a cell strainer and centrifuged at 400×g for 5 minutes to collect the primary cardiomyocytes derived from the newborn rats.
Then, the cardiomyocytes from the newborn rats (10) were suspended in 2 ml of hypotonic solution [prepared by dissolving NH4Cl (8.29 g), KHCO3 (1.0 g), 37 mg of EDTA/2Na (disodium ethylenediaminetetraacetate)(manufactured by Dojin Chemical Laboratory) in water (1 L)] and the suspension was allowed to stand for 3 minutes to disrupt erythrocytes. After 10 ml of Medium 199 containing 10% fetal calf serum was added thereto, the mixture was centrifuged at 400×g for 5 minutes to collect the primary cardiomyocytes from newborn rats. The cells were suspended in Medium 199 containing 10% fetal calf serum. The suspension was then filtered through a cell strainer. An aliquot of the resulting cardiomyocyte suspension was taken and 0.3% trypan blue was added thereto. The mixture was mildly mixed and the number of cardiomyocytes was counted with a hemocytometer.
The primary cardiomyocytes from the newborn rats were suspended at a density of 3×10^6 cells/ml in Medium 199 containing 10% fetal calf serum. The suspension was plated onto a 96-well plate in a volume of 0.1 ml/well, followed by incubation in a CO2 incubator set at 5% CO2 and 37° C. for a day. After the plate was stirred with a micromixer (manufactured by Taiyo Kagaku Kogyo), the medium was exchanged 3 times with serum-free Medium 199 and then test compounds were added thereto. The cells were cultured for further 4 days to induce apoptosis. Subsequently, fetal calf serum was added thereto at a concentration of 10%, and the cells were further cultured for about 17 hours in a CO2 incubator set at 5% CO2 and 37° C. The number of viable cells was determined with Cell Counting Kit (manufactured by Dojin Chemical Laboratory) using as a chromogen WST-8 [2-(2-methoxy-4-nitrophenyl)3-(4-nitrophenyl)-5-(2,4-disulfophenyl)-2H-tetrazolium, monosodium salt] to assess the cardiomyocyte apoptosis inhibitory activity.
The experiment described above was triplicated in an independent manner.
In the TABLE, the minimum effective concentration is defined as the concentration of the test compound required to increase the mean viable cell number by 50% as compared to that in the absence of any test compound.

[2] = test system: antioxidant response element (ARE) of rat glutathione S-transferase Ya subunit gene in Rat H9c2 cells; experiment: Antioxidant response element (ARE)-dependent transcriptional activation activity (luciferase reporter); type: cell-based; conditions: concentration causing luminescence of 200% of test compound-free group (100%); H9c2 cells with pGL3-ARE reporter, about 24 hours
From the text: Antioxidant Response Element (ARE)-dependent Transcriptional Activation Activity
(1) Construction of Luciferase Reporter Vector Bearing Antioxidant Response Element (ARE)
ARE-containing luciferase reporter vectors pGL3-ARE and pGL3-ARE 694G were constructed based on The Journal of Biological Chemistry, 266, 11632, 1991 and The Journal of Biological Chemistry, 275, 40134, 2000, by synthesizing ARE (SEQ ID NO: 1) for rat glutathione S-transferase Ya subunit gene and mutated ARE, i.e., mutant ARE (A694G)(SEQ ID NO: 2) oligonucleotide and then transfecting them to the NheI/BglII site of pGL3-Promoter Vector (manufactured by Promega Corp.), respectively.
(2) Assay for Antioxidant Response Element (ARE)-dependent Transcriptional Activation Activity
Rat H9c2 cells were suspended in Dulbecco's modified Eagle's medium (10% FBS, D-MEM medium) containing […] heat-inactivated fetal calf serum in 7×10^4 cells/ml. […] After allowing to stand for 30 minutes, fluorescence levels by luciferase were determined using a WALLAC ARVO SX (manufactured by Perkin-Elmer). Taking the emitted luminescence of test compound-free group as 100%, the ARE-dependent transcriptional activation was shown in terms of the concentration of test compound, which caused to emit the luminescence of 200% (EC200: μM).

Structure (SMILES)	melting point	minimal effective concentration [1]	EC200 [2]
O=c1nc(C2CC2)sc2ccccc12 [Example 1, 2-Cyclopropyl-4H-1,3-benzothiazin-4-one]	119.5 to 119.6 °C	0.072 µM	–
O=C1NC(=C2CCC2)Sc2ccccc21 [Example 2, 2-Cyclobutylidene-2,3-dihydro-4H-1,3-benzothiazin-4-one]	146.7 to 149.4 °C	0.02 µM	–
O=C1NC(=C2CCCC2)Sc2ccccc21 [Example 3, 2-Cyclopentylidene-2,3-dihydro-4H-1,3-benzothiazin-4-one]	190.4 to 191.4 °C	0.047 µM	–
O=C1NC(=C2CCCCC2)Sc2ccccc21 [Example 4, 2-Cyclohexylidene-2,3-dihydro-4H-1,3-benzothiazin-4-one]	145.6 to 147.1 °C	0.042 µM	–
CC(C)=C1NC(=O)c2ccccc2S1 [Example 5, 2-Isopropylidene-2,3-dihydro-4H-1,3-benzothiazin-4-one]	187.1 to 188.3 °C	–	–
O=C(O)CCc1cccc(-c2nc(=O)c3ccccc3s2)c1 [Example 7, 3-[3-(4-Oxo-4H-1,3-benzothiazin-2-yl)phenyl]propionic acid]	179.8 to 180.2 °C	–	–
N#Cc1cccc(-c2nc(=O)c3ccccc3s2)c1 [Example 8, 2-(3-Cyanophenyl)-4H-1,3-benzothiazin-4-one]	199.6 to 199.7 °C	0.025 µM	–
O=c1nc(-c2ccc(C(F)(F)F)cc2)sc2ccccc12 [Example 9, 2-(4-Trifluoromethylphenyl)-4H-1,3-benzothiazin-4-one]	122.5 to 122.6 °C	0.088 µM	–
CC(=O)c1ccc(-c2nc(=O)c3ccccc3s2)cc1 [Example 10, 2-(4-Acetylphenyl)-4H-1,3-benzothiazin-4-one]	197.5 to 197.6 °C	0.062 µM	–
O=c1nc(-c2cccc(Br)c2)sc2ccccc12 [Example 11, 2-(3-Bromophenyl)-4H-1,3-benzothiazin-4-one]	161.6 to 161.7 °C	–	–
O=c1nc(-c2ccc(O)cc2)sc2ccccc12 [Example 12, 2-(4-Hydroxyphenyl)-4H-1,3-benzothiazin-4-one]	275 °C (dec.)	–	–
CC(=O)Nc1cccc(-c2nc(=O)c3ccccc3s2)c1 [Example 13, N-[3-(4-Oxo-4H-1,3-benzothiazin-2-yl)phenyl]acetamide]	–	0.062 µM	–
CC(=O)Nc1ccc(-c2nc(=O)c3ccccc3s2)cc1 [Example 16, N-[4-(4-Oxo-4H-1,3-benzothiazin-2-yl)phenyl]acetamide]	231.4 to 231.5 °C	0.021 µM	–
O=c1nc(-c2ccc(-c3ccccc3)cc2)sc2ccccc12 [Example 18, 2-(1,1′-Biphenyl-4-yl)-4H-1,3-benzothiazin-4-one]	–	0.083 µM	–

Second part, led by results:

melting point	Structure (SMILES)	minimal effective concentration [1]	EC200 [2]
139.6 to 139.8 °C	O=c1nc(-c2ccccc2C(F)(F)F)sc2ccccc12 [Example 19, 2-(2-Trifluoromethylphenyl)-4H-1,3-benzothiazin-4-one]	–	–
114.6 to 114.7 °C	O=c1nc(-c2cccc(C(F)(F)F)c2)sc2ccccc12 [Example 20, 2-(3-Trifluoromethylphenyl)-4H-1,3-benzothiazin-4-one]	–	1.5 µM
164.3 to 164.4 °C	COC(=O)c1cccc(-c2nc(=O)c3ccccc3s2)c1 [Example 21, Methyl 3-(4-oxo-4H-1,3-benzothiazin-2-yl)benzoate]	–	–
130.9 to 131 °C	COC(=O)C(Cc1cccc(-c2nc(=O)c3ccccc3s2)c1)NC(=O)c1ccccc1 (centres unmarked) [Example 22, Methyl 2-(benzoylamino)-3-[3-(4-oxo-4H-1,3-benzothiazin-2-yl)phenyl]propionate]	–	–
134.1 to 134.2 °C	Cc1cc(Cl)ccc1-c1nc(=O)c2ccccc2s1 [compound 14, 2-(4-Chloro-2-methylphenyl)-4H-1,3-benzothiazin-4-one]	–	–
170.8 to 178.2 °C	CCNc1cc(-c2nc(=O)c3ccccc3s2)ccc1C(=O)OC [compound 15, Methyl 2-(ethylamino)-4-(4-oxo-4H-1,3-benzothiazin-2-yl)benzoate]	–	–
